Results as given in PubChem BioAssay AID1745844 (Carcinogenic Potency Database (CPDB), 2022).
Active and inactive are the calls of the source. The rule behind the calls is not given here.

Tested on: rodent lifetime carcinogenesis bioassay, tumor incidence TD50
Assay: chronic cancer bioassays in animals – CPDB, compiled studies (AID 1745844)
[1] = mouse, strain B6C3F1, females, by gavage, site: any site (literature study), lesion: several types, types named in the paper, dosed 103 weeks, study length 104 weeks
[2] = mouse, strain B6C3F1, females, by gavage, site: lung, lesion: alveolar/bronchiolar adenoma + alveolar/bronchiolar carcinoma, dosed 103 weeks, study length 104 weeks
[3] = mouse, strain B6C3F1, males, by gavage, site: any site (literature study), lesion: several types, types named in the paper, dosed 103 weeks, study length 104 weeks

With `CCOc1nc2cccc(C(=O)OC(C)OC(=O)OC3CCCCC3)c2n1Cc1ccc(-c2ccccc2-c2nn[nH]n2)cc1` (stereo not drawn) as the molecule, how does the TD50 (rat, strain Fischer 344/Jcl, females, in feed, site: any site (literature study), lesion: several types, types named in the paper, dosed 104 weeks, study length 104 weeks) read?
The TD50 was 11200 mg/kg/day (inactive).

And the carcinogen call (rat, strain Fischer 344/Jcl, females, in feed, site: liver, lesion: hepatocellular adenoma, dosed 104 weeks, study length 104 weeks)?
Its carcinogen call is “negative (inactive)”.

What about the carcinogen call (rat, strain Fischer 344/Jcl, males, in feed, site: any site (literature study), lesion: several types, types named in the paper, dosed 104 weeks, study length 104 weeks) of the same molecule?
The carcinogen call was “negative (inactive)”.

What about the carcinogen call (rat, strain Fischer 344/Jcl, males, in feed, site: liver, lesion: hepatocellular adenoma, dosed 104 weeks, study length 104 weeks) of the same molecule?
The carcinogen call was “negative (inactive)”.

What does the source list for `O=C1CCC(=O)O1`?
carcinogen call [1]: negative (inactive); TD50 [2]: 4690 mg/kg/day; carcinogen call [3]: negative (inactive); carcinogen call (rat, strain Fischer 344, females, by gavage, site: any site (literature study), lesion: several types, types named in the paper, dosed 103 weeks, study length 105 weeks): negative (inactive); TD50 (rat, strain Fischer 344, females, by gavage, site: liver, lesion: hepatocellular adenoma + hepatocellular carcinoma + neoplastic nodule, dosed 103 weeks, study length 105 weeks): 1300 mg/kg/day; carcinogen call (rat, strain Fischer 344, males, by gavage, site: any site (literature study), lesion: several types, types named in the paper, dosed 103 weeks, study length 105 weeks): negative (inactive)

Which results are given for `O=NN(CCCC(F)(F)F)CCCC(F)(F)F`?
TD50 (rat, strain Sprague-Dawley, females, by gavage, site: any site (literature study), lesion: malignant tumor, dosed 32 weeks, study length 101 weeks): 0.291 mg/kg/day; TD50 (rat, strain Sprague-Dawley, females, by gavage, site: liver, lesion: hepatocellular carcinoma, dosed 32 weeks, study length 101 weeks): 0.707 mg/kg/day; TD50 (rat, strain Sprague-Dawley, females, by gavage, site: lung, lesion: several types, types named in the paper, dosed 32 weeks, study length 101 weeks): 1.12 mg/kg/day; TD50 (rat, strain Sprague-Dawley, males, by gavage, site: any site (literature study), lesion: malignant tumor, dosed 32 weeks, study length 101 weeks): 0.363 mg/kg/day; TD50 (rat, strain Sprague-Dawley, males, by gavage, site: liver, lesion: hepatocellular carcinoma, dosed 32 weeks, study length 101 weeks): 0.793 mg/kg/day; TD50 (rat, strain Sprague-Dawley, males, by gavage, site: lung, lesion: several types, types named in the paper, dosed 32 weeks, study length 101 weeks): 0.793 mg/kg/day

Which TD50 [1] does the source give for `ClC(Cl)C(Cl)(Cl)Cl` here?
Its TD50 is 39.5 mg/kg/day.

What about the TD50 (mouse, strain B6C3F1, females, by gavage, site: liver, lesion: hepatocellular adenoma + hepatocellular carcinoma + neoplastic nodule, dosed 103 weeks, study length 104 weeks) of the same molecule?
Its TD50 is 39.8 mg/kg/day.

What about the TD50 (mouse, strain B6C3F1, females, by gavage, site: liver, lesion: hepatocellular adenoma + hepatocellular carcinoma, dosed 103 weeks, study length 104 weeks) of the same molecule?
Its TD50 is 39.8 mg/kg/day.

What about the TD50 (mouse, strain B6C3F1, females, by gavage, site: liver, lesion: hepatocellular adenoma, dosed 103 weeks, study length 104 weeks) of the same molecule?
Its TD50 is 153 mg/kg/day.

And the TD50 (mouse, strain B6C3F1, females, by gavage, site: liver, lesion: hepatocellular carcinoma, dosed 103 weeks, study length 104 weeks)?
Its TD50 is 66.6 mg/kg/day.

And the TD50 [2]?
The TD50 was 1030 mg/kg/day.

And the TD50 [3]?
Its TD50 is 85.6 mg/kg/day.

What about the TD50 (mouse, strain B6C3F1, males, by gavage, site: liver, lesion: hepatocellular adenoma + hepatocellular carcinoma + neoplastic nodule, dosed 103 weeks, study length 104 weeks) of the same molecule?
The TD50 was 107 mg/kg/day.

What about the TD50 (mouse, strain B6C3F1, males, by gavage, site: liver, lesion: hepatocellular adenoma + hepatocellular carcinoma, dosed 103 weeks, study length 104 weeks) of the same molecule?
The TD50 was 107 mg/kg/day.

And the TD50 (mouse, strain B6C3F1, males, by gavage, site: liver, lesion: hepatocellular carcinoma, dosed 103 weeks, study length 104 weeks)?
Its TD50 is 102 mg/kg/day.

What about the TD50 (rat, strain Fischer 344, females, by gavage, site: any site (literature study), lesion: several types, types named in the paper, dosed 103 weeks, study length 104 weeks) of the same molecule?
The TD50 was 1660 mg/kg/day (inactive).

What about the TD50 (rat, strain Fischer 344, males, by gavage, site: kidney, lesion: tubular-cell adenoma + tubular-cell adenocarcinoma, dosed 103 weeks, study length 104 weeks) of the same molecule?
Its TD50 is 662 mg/kg/day.

What about the TD50 (rat, strain Fischer 344, males, by gavage, site: kidney, lesion: tubular-cell adenoma, dosed 103 weeks, study length 104 weeks) of the same molecule?
The TD50 was 635 mg/kg/day.

How did the TD50 (mouse, strain Swiss, females, in feed, site: all sites, lesion: lymphocytic leukemia, dosed 46 weeks, study length 66 weeks) turn out when `Nc1nc(-c2ccc([N+](=O)[O-])cc2)cs1` was run?
Its TD50 is 9.95 mg/kg/day.

What about the TD50 (mouse, strain Swiss, females, in feed, site: any site (literature study), lesion: several types, types named in the paper, dosed 46 weeks, study length 66 weeks) of the same molecule?
Its TD50 is 9.95 mg/kg/day.

For `NC(N)=Nc1nc(CSCCNc2nsnc2N)cs1`, which TD50 (rat, strain Charles River CD (Sprague-Dawley), females, by gavage, site: gastric mucosa, lesion: carcinoid tumor, malignant, dosed 105 weeks, study length 105 weeks) is on record?
Its TD50 is 6270 mg/kg/day.

What about the TD50 (rat, strain Charles River CD (Sprague-Dawley), males, by gavage, site: gastric mucosa, lesion: carcinoid tumor, malignant, dosed 105 weeks, study length 105 weeks) of the same molecule?
The TD50 was 4140 mg/kg/day.

`C[C@@H]1O[C@@]2(CS1)CN1CCC2CC1` was tested. Which carcinogen call (rat, strain F344/DuCrj, females, by gavage, site: liver, lesion: one or several types, types not named, dosed 52 weeks, study length 52 weeks) did it give?
Its carcinogen call is “negative (inactive)”.

What about the carcinogen call (rat, strain F344/DuCrj, males, by gavage, site: liver, lesion: one or several types, types not named, dosed 52 weeks, study length 52 weeks) of the same molecule?
Its carcinogen call is “negative (inactive)”.

With `[O]=[W](=[O])([OH])[OH]` as the molecule, how does the carcinogen call (rat, strain Long-Evans BLU:(LE), females, in drinking water, site: any site (literature study), lesion: malignant tumor, dosed 149 weeks, study length 149 weeks) read?
The carcinogen call was “negative (inactive)”.

What about the carcinogen call (rat, strain Long-Evans BLU:(LE), females, in drinking water, site: any site (literature study), lesion: several types, types named in the paper, dosed 149 weeks, study length 149 weeks) of the same molecule?
The carcinogen call was “negative (inactive)”.

And the TD50 (rat, strain Long-Evans BLU:(LE), males, in drinking water, site: any site (literature study), lesion: malignant tumor, dosed 136 weeks, study length 136 weeks)?
The TD50 was 87.7 mg/kg/day (inactive).

What about the TD50 (rat, strain Long-Evans BLU:(LE), males, in drinking water, site: any site (literature study), lesion: several types, types named in the paper, dosed 136 weeks, study length 136 weeks) of the same molecule?
The TD50 was 40.1 mg/kg/day (inactive).

Which TD50 (rat, strain Sprague-Dawley, males, in feed, site: liver, lesion: neoplastic nodule, dosed 91 weeks, study length 91 weeks) does the source give for `ClC1(Cl)C2(Cl)C3C4(Cl)C1(Cl)C1(Cl)C4(Cl)C(Cl)(Cl)C3(Cl)C21Cl` (stereo not drawn) here?
Its TD50 is 6.68 mg/kg/day.

And the TD50 (rat, strain Sprague-Dawley, males, in feed, site: thyroid gland, lesion: adenoma, dosed 91 weeks, study length 91 weeks)?
The TD50 was 1.46 mg/kg/day.

What does the source list for `O=C1NCCN1`?
TD50 (mouse, strain B6AKF1, females, oral dosing, site: any site (literature study), lesion: several types, types named in the paper, dosed 76 weeks, study length 76 weeks): 473 mg/kg/day (inactive); carcinogen call (mouse, strain B6AKF1, females, oral dosing, site: liver, lesion: hepatoma, dosed 76 weeks, study length 76 weeks): negative (inactive); TD50 (mouse, strain B6AKF1, females, oral dosing, site: lung, lesion: adenoma, dosed 76 weeks, study length 76 weeks): 505 mg/kg/day (inactive); carcinogen call (mouse, strain B6AKF1, males, oral dosing, site: any site (literature study), lesion: several types, types named in the paper, dosed 76 weeks, study length 76 weeks): negative (inactive); TD50 (mouse, strain B6AKF1, males, oral dosing, site: liver, lesion: hepatoma, dosed 76 weeks, study length 76 weeks): 500 mg/kg/day (inactive); carcinogen call (mouse, strain B6AKF1, males, oral dosing, site: lung, lesion: adenoma, dosed 76 weeks, study length 76 weeks): negative (inactive); carcinogen call (mouse, strain B6C3F1, females, oral dosing, site: any site (literature study), lesion: one or several types, types not named, dosed 76 weeks, study length 76 weeks): negative (inactive); carcinogen call (mouse, strain B6C3F1, females, oral dosing, site: liver, lesion: hepatoma, dosed 76 weeks, study length 76 weeks): negative (inactive); carcinogen call (mouse, strain B6C3F1, females, oral dosing, site: lung, lesion: several types, types named in the paper, dosed 76 weeks, study length 76 weeks): negative (inactive); TD50 (mouse, strain B6C3F1, males, oral dosing, site: any site (literature study), lesion: several types, types named in the paper, dosed 76 weeks, study length 76 weeks): 87.1 mg/kg/day (inactive); TD50 (mouse, strain B6C3F1, males, oral dosing, site: liver, lesion: hepatoma, dosed 76 weeks, study length 76 weeks): 242 mg/kg/day (inactive); TD50 (mouse, strain B6C3F1, males, oral dosing, site: lung, lesion: adenoma, dosed 76 weeks, study length 76 weeks): 242 mg/kg/day (inactive)
